Reference: US20130045995A1 (priority 2010, published 2013)
Where two headings read alike, the source gives them in different places.

Legend:
[1] = Measurement of logP values by HPLC on reversed phase columns (EEC directive 79/831 Annex V.A8); assay type: physicochemical; settings: for Log P: pH 2.7, 0.1% formic acid in water / acetonitrile; for chromatographic logP: reversed-phase HPLC column
Description: Measurement of logP values was performed according EEC directive 79/831 Annex V.A8 by HPLC (High Performance Liquid Chromatography) on reversed phase columns with the following methods: […]

Phytophthora infestans = assay type: in vivo; settings: 500 ppm of active ingredient; tomato, preventive; evaluated 7 days after inoculation
Plasmopara viticola = assay: Plasmopara test (grapevines) / preventive; assay type: in vivo; settings: 100 ppm of active ingredient, evaluated 6 days after inoculation
Description: • Plasmopara Test (Grapevines)/Preventive
Solvent: 24.5 parts by weight of acetone • 24.5 parts by weight of dimethylacetamide
Emulsifier: 1 part by weight of alkylaryl polyglycol ether
To produce a suitable preparation of active compound, 1 part by weight of active compound is mixed with the stated amounts of solvent and emulsifier, and the concentrate is diluted with water to the desired concentration.
To test for preventive activity, young plants are sprayed with the preparation of active compound at the stated rate of application. After the spray coating has dried on, the plants are inoculated with an aqueous spore suspension of Plasmopara viticola and then remain for 1 day in an incubation cabinet at approximately 20° C. and a relative atmospheric humidity of 100%. The plant is subsequently placed for 4 days in a greenhouse at approximately 21° C. and a relative atmospheric humidity of approximately 90%. The plants are then misted and placed for 1 day in an incubation cabinet.
The test is evaluated 6 days after the inoculation. 0% means an efficacy which corresponds to that of the untreated control, while an efficacy of 100% means that no disease is observed.

| SMILES | efficacy (Phytophthora infestans) | further results |
| --- | --- | --- |
| Cc1snnc1C(=NOCc1csc(NC(=O)C2CC(=O)c3cc(F)ccc3O2)n1)c1ccccc1 (mixture of isomers) [Example 7] | 98% | Log P ([1]; HPLC): 3.72 |
| Cc1snnc1C(=NOCc1cccc(NC(=O)C2COc3ccccc3O2)n1)c1ccccc1 (mixture of isomers) [Example 10] | 95% | efficacy (Plasmopara viticola): 98% |
| Cc1snnc1C(=NOCc1cccc(NC(=O)C2CC(=O)c3cc(F)ccc3O2)n1)c1ccccc1 (mixture of isomers) [Example 16] | 95% | – |
| Cc1snnc1C(=NOCc1csc(NC(=O)C2CCc3ccccc3O2)n1)c1ccccc1 (racemic) [Example 2] | 100% | – |
| Cc1snnc1C(=NOCc1csc(NC(=O)C2Cc3ccccc3O2)n1)c1ccccc1 (racemic) [Example 3] | 100% | – |
| Cc1cccc2c1OC(C(=O)Nc1nc(CON=C(c3ccccc3)c3nnsc3C)cs1)CO2 (racemic) [Example 5] | 100% | – |
| Cc1snnc1C(=NOCc1csc(NC(=O)C2COc3ccccc3O2)n1)c1ccccc1 (racemic) [Example 6] | 100% | efficacy (Plasmopara viticola): 77% |
| Cc1cccc2c1OC(C(=O)Nc1cccc(CON=C(c3ccccc3)c3nnsc3C)n1)CO2 (racemic) [Example 12] | 95% | Log P ([1]; HPLC): 4.73 |
| Cc1snnc1C(=NOCc1cccc(NC(=O)C2COc3ccccc3O2)n1)c1ccccc1 (racemic) [Example 13] | 100% | – |
| Cc1snnc1C(=NOCc1cccc(NC(=O)C2CCc3ccccc3O2)n1)c1ccccc1 (racemic) [Example 14] | 97% | Log P ([1]; HPLC): 4.66 |
| Cc1snnc1C(=NOCc1cccc(NC(=O)C2Cc3ccccc3O2)n1)c1ccccc1 (racemic) [Example 15] | 100% | efficacy (Plasmopara viticola): 74% |
| Cc1snnc1C(=NOCc1csc(NC(=O)C2CN(C)c3ccccc3O2)n1)c1ccccc1 (racemic) [Example 17] | 97% | – |
| Cc1snnc1C(=NOCc1cccc(NC(=O)C2CN(C)c3ccccc3O2)n1)c1ccccc1 (racemic) [Example 18] | 100% | Log P ([1]; HPLC): 4.56 |
| Cc1snnc1C(=NOCc1csc(NC(=O)C2COc3ccccc3O2)n1)c1ccccc1 (stereo not drawn) [Example 1, N-{4-[({[(5-methyl-1,2,3-thiadiazol-4-yl)(phenyl)methylene]amino}oxy)methyl]-1,3-thiazol-2-yl}-2,3-dihydro-1,4-benzodioxine-2-carboxamide] | 100% | efficacy (Plasmopara viticola): 94%; chromatographic logP ([1]; pH 2.7, [I1] main isomer, HPLC, pH 2.7, 0.1% formic acid, read-out: Log P): 3.99; chromatographic logP ([1]; pH 2.7, mixture of Z and E diastereoisomers, two values, read-out: logP(HCOOH)): 3.99 |
